In patent publication US12263171B2, “7-, 8-, and 10-substituted amino triazolo quinazoline derivatives as adenosine receptor antagonists, pharmaceutical compositions and their use” (Merck Sharp & Dohme LLC, priority 2018, dated 2025):

How the values were obtained:
[1] = target: human A2a adenosine receptor (Homo sapiens (Human), UniProt P29274); assay: A2a receptor affinity radioligand binding assay ([3H] SCH58261, membranes from HEK293 or CHO cells); conditions: unstarred values: radioligand binding
Method in brief: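 Displacement of tritiated SCH58261 (working dilution 4 nM) from recombinant human A2a receptor membranes (HEK293 or CHO), 60 min at room temperature in Tris pH 7.4/MgCl2 buffer after 15–30 min compound preincubation. Scintillation counting after filtration; normalized percent effect fitted 4-parameter logistic for IC50.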

[2] = target: human A2b adenosine receptor (Homo sapiens (Human), UniProt P29275); assay: A2B antagonism in cAMP cell-based assay (LANCE cAMP, HEK293 cells, 600 nM adenosine); conditions: for IC50: values marked *: cAMP cell-based assay
Protocol: Measurement of A2A and A2B Antagonism in cAMP Cell-Based Assay
All subsequent liquid additions were performed using a multichannel pipettor. […] After this time 5 μL of either 300 nM or 600 nM adenosine (Sigma Cat. No. A9251) for A2A and A2B respectively was added and incubated for 30 minutes at 37° C. and 5% CO2 in a humidified environment. At this time detection mix was prepared by combining the LANCE Eu-W8044 labeled streptavidin and. Biotin-cAMP in detection buffer according to the manufacturers protocol. […] Curve fitting of the percent effect data versus the log of compound concentration used a 4-parameter concentration response curve fitting algorithm to calculate IC50 values.

Chain of human A2a adenosine receptor (P29274 whole entry): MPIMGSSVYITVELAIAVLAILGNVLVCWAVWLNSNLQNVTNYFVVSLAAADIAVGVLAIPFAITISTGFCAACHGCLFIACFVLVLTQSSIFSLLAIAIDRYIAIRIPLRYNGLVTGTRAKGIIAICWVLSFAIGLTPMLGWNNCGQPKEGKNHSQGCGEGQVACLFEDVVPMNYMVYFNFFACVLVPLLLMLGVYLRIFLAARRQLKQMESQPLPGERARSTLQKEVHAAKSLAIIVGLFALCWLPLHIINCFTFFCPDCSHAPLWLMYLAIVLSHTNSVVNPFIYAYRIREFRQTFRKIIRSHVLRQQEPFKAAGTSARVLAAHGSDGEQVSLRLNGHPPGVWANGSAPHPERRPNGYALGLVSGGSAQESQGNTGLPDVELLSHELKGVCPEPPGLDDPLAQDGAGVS
Chain of human A2b adenosine receptor (P29275 whole entry): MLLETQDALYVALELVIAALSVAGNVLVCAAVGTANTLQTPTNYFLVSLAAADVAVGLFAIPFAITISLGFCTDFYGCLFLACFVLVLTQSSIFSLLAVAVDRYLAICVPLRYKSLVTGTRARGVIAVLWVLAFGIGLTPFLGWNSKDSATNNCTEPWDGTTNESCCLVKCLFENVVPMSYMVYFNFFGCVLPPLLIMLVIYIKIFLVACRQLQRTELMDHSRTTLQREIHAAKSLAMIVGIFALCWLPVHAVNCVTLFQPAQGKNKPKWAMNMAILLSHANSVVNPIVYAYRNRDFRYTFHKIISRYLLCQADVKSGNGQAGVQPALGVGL

| IC50 [1] | IC50 [2] | *A2B cAMP % inh. @ 10000 nM ([2]; @ 10000 nM, marked *) | *A2B cAMP ^ % @ 10000 nM ([2]; @ 10000 nM, marked *, printed with ^ and without inh.) | Structure (SMILES) |
| --- | --- | --- | --- | --- |
| 0.0013 µM | 0.0709 µM |  |  | COc1cccc2c1nc(N)n1nc([C@@H]3CCCN(c4cnn5c(C)cccc45)C3)nc21 [Example 19, (R)-7-methoxy-2-(1-(7-methylpyrazolo[1,5-a]pyridin-3-yl)piperidin-3-yl)-[1,2,4]triazolo[1,5-c]quinazolin-5-amine] |
| 0.0016 µM | 0.102 µM |  |  | COc1cccc2c1nc(N)n1nc([C@@H]3CCCN(c4cnn(CC(C)(C)OC)c4)C3)nc21 [Example 22, (R)-7-methoxy-2-(1-(1-(2-methoxy-2-methylpropyl)-1H-pyrazol-4-yl)piperidin-3-yl)-[1,2,4]triazolo[1,5-c]quinazolin-5-amine] |
| 0.002 µM | 0.0403 µM |  |  | COc1cccc2c1nc(N)n1nc([C@@H]3CCCN(c4cnn([C@@H]5CCC[C@H](O)[C@@]5(C)O)c4)C3)nc21 [Example 27, (1S,2S,6R)-6-(4-((R)-3-(5-amino-7-methoxy-[1,2,4]triazolo[1,5-c]quinazolin-2-yl)piperidin-1-yl)-1H-pyrazol-1-yl)-1-methylcyclohexane-1,2-diol] |
| 0.0063 µM | 0.0483 µM |  |  | COc1cccc2c1nc(N)n1nc([C@@H]3CCCN(c4cnn(C(C)(C)C(=O)O)c4)C3)nc21 [Example 28, (R)-2-(4-(3-(5-amino-7-methoxy-[1,2,4]triazolo[1,5-c]quinazolin-2-yl)piperidin-1-yl)-1H-pyrazol-1-yl)-2-methylpropanoic acid] |
| 0.0013 µM | 0.0247 µM |  |  | COc1cccc2c1nc(N)n1nc([C@@H]3CCCN(c4cnn([C@H]5CC[C@H](O)C5)c4)C3)nc21 [Example 29, (1S,3S)-3-(4-((R)-3-(5-amino-7-methoxy-[1,2,4]triazolo[1,5-c]quinazolin-2-yl)piperidin-1-yl)-1H-pyrazol-1-yl)cyclopentan-1-ol] |
| 0.0508 µM | 1.7 µM |  |  | COc1cccc2c1nc(N)n1nc([C@@H]3CCCN(c4cnn(C5CC6(COC6)C5)c4)C3)nc21 [Example 31, (R)-2-(1-(1-(2-oxaspiro[3.3]heptan-6-yl)-1H-pyrazol-4-yl)piperidin-3-yl)-7-methoxy-[1,2,4]triazolo[1,5-c]quinazolin-5-amine] |
| 0.0016 µM | 0.219 µM |  |  | COc1cccc2c1nc(N)n1nc([C@@H]3CCCN(c4cnn(CC5(O)CCC5)c4C)C3)nc21 [Example 34, (R)-1-((4-(3-(5-amino-7-methoxy-[1,2,4]triazolo[1,5-c]quinazolin-2-yl)piperidin-1-yl)-5-methyl-1H-pyrazol-1-yl)methyl)cyclobutan-1-ol] |
| 0.0025 µM | 0.0294 µM |  |  | COc1cccc2c1nc(N)n1nc([C@@H]3CCCN(c4cnn(C5COC5)c4)C3)nc21 [Example 39, (R)-7-methoxy-2-(1-(1-(oxetan-3-yl)-1H-pyrazol-4-yl)piperidin-3-yl)-[1,2,4]triazolo[1,5-c]quinazolin-5-amine] |
| 0.0031 µM | 0.0197 µM |  |  | CCC(O)(CC)Cn1cc(N2CCC[C@@H](c3nc4c5cccc(OC)c5nc(N)n4n3)C2)cn1 [Example 40] |
| 0.0008 µM | 0.0222 µM |  |  | COc1cccc2c1nc(N)n1nc([C@@H]3CCCN(c4cnn(CC5(O)CCCC5)c4)C3)nc21 [Example 41, (R)-1-((4-(3-(5-amino-7-methoxy-[1,2,4]triazolo[1,5-c]quinazolin-2-yl)piperidin-1-yl)-1H-pyrazol-1-yl)methyl)cyclopentan-1-ol] |
| 0.002 µM | 0.0327 µM |  |  | COc1cccc2c1nc(N)n1nc([C@@H]3CCCN(c4ccn(CC(C)(C)O)n4)C3)nc21 [Example 63, (R)-1-(3-(3-(5-amino-7-methoxy-[1,2,4]triazolo[1,5-c]quinazolin-2-yl)piperidin-1-yl)-1H-pyrazol-1-yl)-2-methylpropan-2-ol] |
| 0.0008 µM | 0.54 µM |  |  | COc1cccc2c1nc(N)n1nc([C@@H]3CCCN(c4cc(C(F)(F)F)nn4C)C3)nc21 [Example 77, (R)-7-methoxy-2-(1-(1-methyl-3-(trifluoromethyl)-1H-pyrazol-5-yl)piperidin-3-yl)-[1,2,4]triazolo[1,5-c]quinazolin-5-amine] |
| 0.0033 µM | 2.5 µM |  |  | COc1cccc2c1nc(N)n1nc([C@@H]3CCCN(c4cc(C(F)(F)F)n(C)n4)C3)nc21 [Example 78, (R)-7-methoxy-2-(1-(1-methyl-5-(trifluoromethyl)-1H-pyrazol-3-yl)piperidin-3-yl)-[1,2,4]triazolo[1,5-c]quinazolin-5-amine] |
| 0.0016 µM | 0.146 µM |  |  | COc1cccc2c1nc(N)n1nc([C@@H]3CCCN(c4nnn(C)c4C)C3)nc21 [Example 79, (R)-2-(1-(1,5-dimethyl-1H-1,2,3-triazol-4-yl)piperidin-3-yl)-7-methoxy-[1,2,4]triazolo[1,5-c]quinazolin-5-amine] |
| 0.0023 µM | 0.0182 µM |  |  | COc1cccc2c1nc(N)n1nc([C@@H]3CCCN(c4ncc[nH]4)C3)nc21 [Example 80, (R)-2-(1-(1H-imidazol-2-yl)piperidin-3-yl)-7-methoxy-[1,2,4]triazolo[1,5-c]quinazolin-5-amine] |
| 0.0026 µM | 0.544 µM |  |  | COc1cccc2c1nc(N)n1nc([C@@H]3CCCN(c4nnc(C)o4)C3)nc21 [Example 82, (R)-7-methoxy-2-(1-(5-methyl-1,3,4-oxadiazol-2-yl)piperidin-3-yl)-[1,2,4]triazolo[1,5-c]quinazolin-5-amine] |
| 0.0008 µM | 0.0783 µM |  |  | COc1cccc2c1nc(N)n1nc([C@@H]3CCCN(c4ncn(C)n4)C3)nc21 [Example 83, (R)-7-methoxy-2-(1-(1-methyl-1H-1,2,4-triazol-3-yl)piperidin-3-yl)-[1,2,4]triazolo[1,5-c]quinazolin-5-amine] |
| 0.0016 µM | 0.187 µM |  |  | COc1cccc2c1nc(N)n1nc([C@@H]3CCCN(c4cnc(C5CC5)n4C)C3)nc21 [Example 84, (R)-2-(1-(2-cyclopropyl-1-methyl-1H-imidazol-5-yl)piperidin-3-yl)-7-methoxy-[1,2,4]triazolo[1,5-c]quinazolin-5-amine] |
| 0.0149 µM | 0.314 µM |  |  | COc1cccc2c1nc(N)n1nc([C@@H]3CCCN(c4csc(C5CC5)n4)C3)nc21 [Example 85, (R)-2-(1-(2-cyclopropylthiazol-4-yl)piperidin-3-yl)-7-methoxy-[1,2,4]triazolo[1,5-c]quinazolin-5-amine] |
| 0.0021 µM | 0.146 µM |  |  | COc1cccc2c1nc(N)n1nc([C@@H]3CCCN(c4cncn4C)C3)nc21 [Example 86, (R)-7-methoxy-2-(1-(1-methyl-1H-imidazol-5-yl)piperidin-3-yl)-[1,2,4]triazolo[1,5-c]quinazolin-5-amine] |
| 0.0015 µM | 0.631 µM |  |  | COc1cccc2c1nc(N)n1nc([C@@H]3CCCN(c4ccn(C(C)C)c(=O)c4)C3)nc21 [Example 89, (R)-4-(3-(5-amino-7-methoxy-[1,2,4]triazolo[1,5-c]quinazolin-2-yl)piperidin-1-yl)-1-isopropylpyridin-2(1H)-one] |
| 0.0019 µM | 5.93 µM |  |  | COc1cccc2c1nc(N)n1nc([C@@H]3CCCN(c4cc(=O)n(C)c5ccccc45)C3)nc21 [Example 90, (R)-4-(3-(5-amino-7-methoxy-[1,2,4]triazolo[1,5-c]quinazolin-2-yl)piperidin-1-yl)-1-methylquinolin-2(1H)-one] |
| 0.0018 µM | 0.775 µM |  |  | CCn1ccc(N2CCC[C@@H](c3nc4c5cccc(OC)c5nc(N)n4n3)C2)cc1=O [Example 91, (R)-4-(3-(5-amino-7-methoxy-[1,2,4]triazolo[1,5-c]quinazolin-2-yl)piperidin-1-yl)-1-ethylpyridin-2(1H)-one] |
| 0.0024 µM | 0.21 µM |  |  | COc1cccc2c1nc(N)n1nc([C@@H]3CCCN(c4ccc(=O)n(CC(F)(F)F)c4C)C3)nc21 [Example 94, (R)-5-(3-(5-amino-7-methoxy-[1,2,4]triazolo[1,5-c]quinazolin-2-yl)piperidin-1-yl)-6-methyl-1-(2,2,2-trifluoroethyl)pyridin-2(1H)-one] |
| 0.0023 µM | 0.0591 µM |  |  | COc1cccc2c1nc(N)n1nc([C@@H]3CCCN(c4ccc(=O)n(C5CC5)c4)C3)nc21 [Example 95, (R)-5-(3-(5-amino-7-methoxy-[1,2,4]triazolo[1,5-c]quinazolin-2-yl)piperidin-1-yl)-1-cyclopropylpyridin-2(1H)-one] |
| 0.0044 µM | 0.0624 µM |  |  | COc1cccc2c1nc(N)n1nc([C@@H]3CCCN(c4ccc(=O)n(CC(F)(F)F)c4)C3)nc21 [Example 97, (R)-5-(3-(5-amino-7-methoxy-[1,2,4]triazolo[1,5-c]quinazolin-2-yl)piperidin-1-yl)-1-(2,2,2-trifluoroethyl)pyridin-2(1H)-one] |
| 0.0121 µM |  | 18% inh. @ 10000 nM* |  | COc1cccc2c1nc(N)n1nc([C@@H]3CCCN(c4cnccc4C(F)(F)F)C3)nc21 [Example 108, (R)-7-methoxy-2-(1-(4-(trifluoromethyl)pyridin-3-yl)piperidin-3-yl)-[1,2,4]triazolo[1,5-c]quinazolin-5-amine] |
| 0.0526 µM |  |  | 22% @ 10000 nM* | COc1cccc2c1nc(N)n1nc([C@@H]3CCCN(c4ncc(C(F)(F)F)cn4)C3)nc21 [Example 109, (R)-7-methoxy-2-(1-(5-(trifluoromethyl)pyrimidin-2-yl)piperidin-3-yl)-[1,2,4]triazolo[1,5-c]quinazolin-5-amine] |
